From PubChem BioAssay AID256 (DTP/NCI, 2004)
Toxic doses and inconclusive results are not listed. The calls were made as follows: active = survival T/C of 150% or more; inactive = T/C below 125% in these data.

System: CD2F1 mice, L1210 leukemia ip, survival T/C
Assay: NCI In Vivo Anticancer Drug Screen. Data for tumor model L1210 Leukemia (intraperitoneal) in CD2F1 (CDF1) mice
Details: endpoint: mean survival time, higher = longer survival
How it was run: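 Vehicle-treated tumor-bearing mice served as controls (C) for compound-treated mice (T). Reported figure is T divided by C.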

[1] = dose: 12.5 mg/kg/injection, schedule: Q01DX005 (ip), vehicle: water
[2] = dose: 25.0 mg/kg/injection, schedule: Q01DX005 (ip), vehicle: water
[3] = dose: 50.0 mg/kg/injection, schedule: Q01DX005 (ip), vehicle: water
[4] = dose: 100.0 mg/kg/injection, schedule: Q01DX005 (ip), vehicle: water
[5] = dose: 200.0 mg/kg/injection, schedule: Q01DX005 (ip), vehicle: water

Measured: T/C

OCC1OC(n2ccn(C3OC(CO)C(O)C3O)c2=S)C(O)C1O (configuration not stated)
inactive: [1] 98 % of control | [2] 106 % of control | [3] 96 % of control | [4] 98 % of control | [5] 102 % of control

OCC1CC=CCC1 (configuration not stated)
inactive: dose: 100.0 mg/kg/injection, schedule: Q04DX003 (ip), vehicle: saline with Tween-80 97 % of control | dose: 200.0 mg/kg/injection, schedule: Q04DX003 (ip), vehicle: saline with Tween-80 90 % of control | dose: 400.0 mg/kg/injection, schedule: Q04DX003 (ip), vehicle: saline with Tween-80 95 % of control

CCSC(CC(O)C(O)C(O)CO)n1cnc2c(Cl)ncnc21 (configuration not stated)
inactive: [1] 100 % of control | [2] 105 % of control | [3] 102 % of control | [4] 107 % of control | [5] 104 % of control

CC1=NN(c2ccc([N+](=O)[O-])cc2)C(=O)C1[N+](=O)[O-] (configuration not stated) (tested in a mixture with another compound)
inactive: dose: 75.0 mg/kg/injection, schedule: Q01DX001 (ip), vehicle: other 92 % of control | dose: 100.0 mg/kg/injection, schedule: Q01DX001 (ip), vehicle: saline with Tween-80 91 % of control | dose: 150.0 mg/kg/injection, schedule: Q01DX001 (ip), vehicle: other 104 % of control | dose: 200.0 mg/kg/injection, schedule: Q01DX001 (ip), vehicle: saline with Tween-80 97 % of control
